Measurements taken from patent publication US12226396B2, “Gluconic acid derivatives for use in the treatment and/or prevention of microbial infections” (GEDEA BIOTECH AB, priority 2017, dated 2025).

Key:
[1] = system: Lactobacillus crispatus CCUG 44128; assay: MIC microdilution test; assay type: cell-based; settings: IsoS-M.R.S., 48 hours, 5% CO2
Procedure: (§1) Gardnerella vaginalis, Lactobacillus iners, and Lactobacillus crispatus were recovered by CCUG (Culture Collection of University of Gothenburg). Subculture plates were made for G. vaginalis on Chocolate-GL plates and Lactobacillus spp. on M.R.S. agar plates at 5% CO2, 36° C. The inoculums were prepared from the subculture plates. Colonies were inoculated to culture tubes with 5 ml test medium and vortexed 2 min with about 10 glass beads a 3 mm in diameter. Colonies were taken until the turbidity of the solution was OD475 of 0.4-0.5. The bacterial solutions were checked in light microscopy at ×40 with phase contrast to make sure that the cells were dispersed. Each bacterial suspension was diluted in its test medium, 1:100, to equal 1-3×10^6 CFU/ml. The microbial solutions were stored at 20° C. during the preparation of the inoculums
(§2) The test substance solution was prepared aseptically at 1 g/ml in sterile H2O. The first row of wells was filled with 100 μl substance and then 2 fold dilutions were done vertically in 8 steps.
(§3) Next, 100 μl microorganisms were added and the plates were gently shaken at 500 rpm for 30 seconds before incubation at 35° C. and 90% RH in the CO2 incubator set at 5% CO2. After 48 and 72 hours of incubation, the OD was measured and ocular assessments were done. The pH was also measured for all dilutions, n=1, pH=6.8-7.1

[2] = system: Gardnerella vaginalis CCUG 3717; assay: MIC microdilution test; assay type: cell-based; settings: CAMHB, 48 hours, 5% CO2
Procedure: as §1, §2, §3

[3] = system: C. glabrata; assay: Viability of mature biofilm, XTT assay; assay type: cell-based, Candida glabrata; settings: 24 h of incubation with GDA
Procedure: (§4) XXT is a colorimetric assay for quantification of cellular viability, and cytotoxicity. The assay is based on the cleavage of the tetrazolium salt XTT, a conversion that only occurs in viable cells. […] Then the cells were washed 2 times with PBS, after which the XTT reaction mixture was added. After 30 min the optical density measured at 485 nm.

[4] = system: C. albicans; assay: Viability of mature biofilm, XTT assay; assay type: cell-based, Candida albicans; settings: 48 h of incubation with GDA
Procedure: as §4

[5] = system: Candida albicans; assay: Biofilm formation in a model of in vivo conditions (pellet release in pH 3.71 buffer); assay type: cell-based
Procedure: (§5) Biofilm was measured in liquid culture as described [K. Scherz et al., G3 (Bethesda), 2014, 4, 1671-1680. I. Serrano-Fujarte et al. Biomed Res Int. 2015; 2015:783639] with some modifications. Prior the biofilm assay, yeast cultures were grown in liquid YPD medium for 24 hours until stationary phase (OD600 11-17)^2, cells were then pelleted by centrifugation (1699 g), washed with sterile water and cells were further inoculated into test biofilm medium (YNB (yeast nitrogen base without amino acids and ammonium sulphate) supplemented with 0.5% ammonium sulphate, 0.2% glucose and 100 mM L-proline pH7.0) at final concentration 0.2 OD600/ml and incubated in 96-well flat-bottom polystyrene microtiter plates (Sigma Aldrich, Corning® Costar® culture plates, CLS3596-50EA) for 72 hours at 37° C. thermostat. At defined time points crystal violet (HT901-8FOZ; Sigma Aldrich) was added to the media at the final concentration 0.05%, in addition total biomass was measured. After 24 hours of cells staining, plate wells were washed four times with 200 μl of water to remove planktonic cells, biofilms were then dried and dissolved in 200 μl of 96% ethanol. Total biomass and crystal violet biofilm staining measurements were performed at OD560 with FLUOstar OPTIMA plate reader, BMG LABTECH. Crystal violet biofilm measurements were normalized to the total biomass (OD560Biofilm/OD560 total biomass).
(§6) Pellet of lactonized/oligomerized gluconic acid (1.3 g, duplicate samples) were added to buffer solution of pH 3.71 (0.5 M KH2PO/ortho phosphoric acid, 10 mL) at 37° C. Samples (4 mL) were taken every hour (1, 2, 3, 4, 5, 6 and 24 h) and new buffer solution (4 mL) was added. The samples were diluted 50 times with biofilm medium (vide supra) and the amount of biofilm formation was measured after 24 h as described above. […]
(§7) Samples (4 mL) were taken at fixed time points (1, 2, 3, 4, 5, 6 and 24 h) and new buffer solution (4 mL) was added. The samples were diluted 50 times with biofilm medium (vide supra) and the amount of biofilm formation was measured after 24 h as described above. […]

[6] = system: Candida glabrata; assay: as above; assay type: cell-based; settings: pellet 2.5 g in pH 3.71 buffer at 37° C, sample after 1 h, diluted 50 times, biofilm after 24 h
Procedure: as §5, §6, §7

## O=C1O[C@H](CO)[C@@H](O)[C@H](O)[C@H]1O [GDA, glucono-δ-lactone]
[1]
  MIC (g/ml): 0.0078 g/ml
[2]
  MIC (g/ml): 0.001 g/ml
[3]
  decrease in viability of mature biofilm (XTT): strong decrease in viability
[4]
  decrease in viability of mature biofilm (XTT): clearly seen
[5]; pellet 2.5 g in pH 3.71 buffer at 37° C, sample after 1 h, diluted 50 times, biofilm after 24 h
  Normalized biofilm (% of control), 1 h: 8.3 % of control
[5]; pellet in pH 3.71 buffer, samples 1-24 h diluted 50 times
  duration of preventive effect on biofilm formation from pellet hydrolysis: ≥ 24 h
[6]
  Normalized biofilm (% of control), 1 h: 71 % of control
